The source of these data is US7713965B2, “7-substituted 3-carboxy-oxadiazino-quinolone derivatives, their preparation and their application as anti-bacterials” (Vetoquinol SA, priority 2008, dated 2010).

Structures are written as SMILES.

As a reminder, the melting point is the temperature of the solid-liquid transition. For `CN1COc2c(N3CCC(Nc4ncns4)C3)c(F)cc3c(=O)c(C(=O)O)cn1c23` (stereo not shown) (hydrate or solvate), the melting point is 285 °C (dec.).

Consider `Cc1nc(NC2CCN(c3c(F)cc4c(=O)c(C(=O)O)cn5c4c3OCN5C)C2)sc1C` (stereo not shown) (hydrate or solvate), for which the melting point is 266 °C (dec.).

With `Cc1csc(NC2CCN(c3c(F)cc4c(=O)c(C(=O)O)cn5c4c3OCN5C)C2)n1` (stereo not shown) (hydrate or solvate), the melting point is 260 °C (dec.).

On to `Cc1cnc(NC2CCN(c3c(F)cc4c(=O)c(C(=O)O)cn5c4c3OCN5C)C2)s1` (stereo not shown) (hydrate or solvate), for which the melting point was 265 °C (dec.).

`Cc1cc(NC2CCN(c3c(F)cc4c(=O)c(C(=O)O)cn5c4c3OCN5C)C2)sn1` (stereo not shown) (hydrate or solvate) gave a melting point of 265 °C.

As to `Cc1cc(NC2CCN(c3c(F)cc4c(=O)c(C(=O)O)cn5c4c3OCN5C)C2)on1` (stereo not shown) (hydrate or solvate), the melting point is 244 °C (dec.).

`Cc1cc(NC2CCN(c3c(F)cc4c(=O)c(C(=O)O)cn5c4c3OCN5C)C2)no1` (stereo not shown) (hydrate or solvate): the melting point was 263 °C (dec.).

The compound `CN1COc2c(N3CCC(CN(c4cnccn4)c4cnccn4)C3)c(F)cc3c(=O)c(C(=O)O)cn1c23` (stereo not shown) (hydrate or solvate) registered a melting point of 213 to 215 °C.

The compound `CN1COc2c(N3CCC(NC4=NCCS4)C3)c(F)cc3c(=O)c(C(=O)O)cn1c23` (stereo not shown) (hydrate or solvate) yielded a melting point of 265 to 267 °C.

In the case of `CN1COc2c(N3CCC(n4ccnn4)C3)c(F)cc3c(=O)c(C(=O)O)cn1c23` (stereo not shown) (hydrate or solvate), the melting point was 264 °C (dec.).

Consider `CN1COc2c(N3CCC(c4nnn[nH]4)C3)c(F)cc3c(=O)c(C(=O)O)cn1c23` (stereo not shown) (hydrate or solvate), for which the melting point was 250 °C (dec.).

`CN1COc2c(N3CCC(NC(=O)c4ccco4)C3)c(F)cc3c(=O)c(C(=O)O)cn1c23` (stereo not shown) (hydrate or solvate) had a melting point of 306 to 308 °C.

Regarding `CN1COc2c(N3CCC(NC(=O)CC(F)(F)F)C3)c(F)cc3c(=O)c(C(=O)O)cn1c23` (stereo not shown) (hydrate or solvate), the melting point was 292 °C (dec.).

For `CN1COc2c(N3CCC(NS(C)(=O)=O)C3)c(F)cc3c(=O)c(C(=O)O)cn1c23` (stereo not shown) (hydrate or solvate), the melting point was 261 °C (dec.).

As for `CN1COc2c(N3CC(O)C(C)(C)C3)c(F)cc3c(=O)c(C(=O)O)cn1c23` (stereo not shown) (hydrate or solvate), the melting point was 281 °C (dec.).

`CN1COc2c(N3CCC(O)(c4nccs4)C3)c(F)cc3c(=O)c(C(=O)O)cn1c23` (stereo not shown) (hydrate or solvate): the melting point fell in the range of 252 to 253 °C.

Regarding `CN1COc2c(N3CCC(CNc4nccs4)C3)c(F)cc3c(=O)c(C(=O)O)cn1c23` (stereo not shown) (hydrate or solvate), the melting point was 268 to 270 °C.

Consider `CN1COc2c(N3CCC(Nc4cnccn4)CC3)c(F)cc3c(=O)c(C(=O)O)cn1c23` (hydrate or solvate), for which the melting point was 239 °C (dec.).

`CN1COc2c(N3CCC(Nc4ccccn4)CC3)c(F)cc3c(=O)c(C(=O)O)cn1c23` (hydrate or solvate): the melting point was 264 °C (dec.).

Compound `CN1COc2c(N3CCC(Nc4nccs4)CC3)c(F)cc3c(=O)c(C(=O)O)cn1c23` (hydrate or solvate) gave a melting point of 280 °C.

Regarding `CN1COc2c(N3CCC(NC(=O)c4ccco4)CC3)c(F)cc3c(=O)c(C(=O)O)cn1c23` (hydrate or solvate), the melting point lay within 293 to 295 °C.

As to `CN1COc2c(N3CCC(N4CCCCC4)CC3)c(F)cc3c(=O)c(C(=O)O)cn1c23` (hydrate or solvate), the melting point is 249 °C (dec.).

With `CN1COc2c(N3CCC(N4CCCC4)CC3)c(F)cc3c(=O)c(C(=O)O)cn1c23` (hydrate or solvate), the melting point was 267 to 269 °C.

With `CN1COc2c(N3CC[C@H](NC(=O)C(F)(F)F)C3)ccc3c(=O)c(C(=O)O)cn1c23` (hydrate or solvate), the melting point is 310 °C (dec.).

As for `CN1COc2c(N3CC[C@@H](Nc4nccs4)C3)ccc3c(=O)c(C(=O)O)cn1c23` (hydrate or solvate), the melting point was 275 °C (dec.).

Consider `Cc1nnc(NCC2CCN(c3c(F)cc4c(=O)c(C(=O)O)cn5c4c3OCN5C)C2)o1` (stereo not shown) (hydrate or solvate), for which the melting point was determined as 240 °C.

`CC1Oc2c(N3CC[C@H](NC(=O)C(F)(F)F)C3)ccc3c(=O)c(C(=O)O)cn(c23)N1C` (stereo partly shown) (hydrate or solvate): the melting point was determined as 260 °C.

`CC1Oc2c(N3CC[C@@H](Nc4nccs4)C3)c(F)cc3c(=O)c(C(=O)O)cn(c23)N1C` (stereo partly shown) (hydrate or solvate) came in with a melting point of 224 to 226 °C.

In the case of `CN1n2cc(C(=O)O)c(=O)c3cc(F)c(N4CC[C@@H](Nc5nccs5)C4)c(c32)OC1(C)C` (hydrate or solvate), the melting point was 235 to 237 °C.

Consider `CN1n2cc(C(=O)O)c(=O)c3ccc(N4CC[C@@H](Nc5nccs5)C4)c(c32)OC1(C)C` (hydrate or solvate), for which the melting point was 287 °C (dec.).

As for `CC1Oc2c(N3C[C@H](N)C(C)(C)C3)c(F)cc3c(=O)c(C(=O)O)cn(c23)N1C` (stereo partly shown) (hydrate or solvate), the melting point was 212 to 214 °C.

In turn, `CN1COc2c(N3CCC(CNC(=O)c4ccco4)C3)c(F)cc3c(=O)c(C(=O)O)cn1c23` (stereo not shown) (hydrate or solvate) returned a melting point of 278 to 280 °C.

`CN1n2cc(C(=O)O)c(=O)c3cc(F)c(N4C[C@H](N)C(C)(C)C4)c(c32)OC1(C)C` (hydrate or solvate) displayed a melting point of 255 to 257 °C.

With `CN1COc2c(N3C[C@@H](Nc4nccs4)C(C)(C)C3)c(F)cc3c(=O)c(C(=O)O)cn1c23` (hydrate or solvate), the melting point was 265 °C (dec.).

The compound `CN1COc2c(N3C[C@H](Nc4nccs4)C(C)(C)C3)c(F)cc3c(=O)c(C(=O)O)cn1c23` (hydrate or solvate) displayed a melting point of 271 to 273 °C.

`Cc1cc(N[C@@H]2CCN(c3c(F)cc4c(=O)c(C(=O)O)cn5c4c3OCN5C)C2)on1` (hydrate or solvate): the melting point was in the range of 255 to 257 °C.

In turn, `Cc1cc(N[C@H]2CCN(c3c(F)cc4c(=O)c(C(=O)O)cn5c4c3OCN5C)C2)on1` (hydrate or solvate) came in with a melting point of 255 to 257 °C.

`CN1COc2c(N3CC[C@H](Nc4ncc[nH]4)C3)c(F)cc3c(=O)c(C(=O)O)cn1c23` (hydrate or solvate): the melting point is 245 °C (dec.).

As to `CN1COc2c(N3CC[C@@H](Nc4ncc[nH]4)C3)c(F)cc3c(=O)c(C(=O)O)cn1c23` (hydrate or solvate), the melting point was 225 °C (dec.).

Compound `CN(c1nccs1)[C@@H]1CCN(c2c(F)cc3c(=O)c(C(=O)O)cn4c3c2OCN4C)C1` (hydrate or solvate) had a melting point of 222 to 224 °C.

In the case of `CN1COc2c(N3CC(N)C(c4nccs4)C3)c(F)cc3c(=O)c(C(=O)O)cn1c23` (stereo not shown) (hydrate or solvate), the melting point fell in the range of 240 to 245 °C.

For the compound `CN1COc2c(N3CC[C@@H](Nc4cnccn4)C3)c(F)cc3c(=O)c(C(=O)O)cn1c23` (hydrate or solvate), the melting point was 255 °C (dec.).

`Cc1nnc(NC2CCN(c3c(F)cc4c(=O)c(C(=O)O)cn5c4c3OCN5C)C2)o1` (stereo not shown) (hydrate or solvate) showed a melting point of 285 °C.
